Data published in patent US8546421B1, “Oncogenic-RAS-signal dependent lethal compounds” (The Trustees of Columbia University in the City of New York, priority 2007, dated 2013).

Legend:
[1] = system: BJ-TERT/LT/ST/RAS^V12 cells; experiment: Counter screening with biologically active compounds; format: cell-based, human
Experimental: Biologically active compounds listed in Table 1 were dissolved in BJ medium at 10× final concentration and aliquoted into eppendorf tubes. 100 μL of each 10× solution was transferred to column 1 to column 12 or column 13 to column 24 of a single row in a 384-well daughter plate. This plate was designated as ‘10× biologically active plate’. In order to prepare lethal compound solution, Erastin and compounds 3, 6, 27, and 36 were dissolved in BJ medium at a concentration of 100 μg/mL, 400 μg/mL, 400 μg/mL, 100 μg/mL, and 200 μg/mL, respectively. Empty daughter plates were filled with 50 μL BJ media except for columns 5 and 13 where 100 μL of each lethal solution was transferred. After lethal solution transfer, 2-fold dilution series across columns 5 to 12 and columns 13 to 20 was made by transferring 50 μL compound solution to the next column successively (8-point dilution series), with mixing. These five plates were each designated ‘10× lethal plate’. Five assay plates were prepared by seeding 4,000 BJ-TERT/LT/ST/RAS^V12 cells per well in 32 μL of growth media in black, clear bottom 384-well plates. Cells in assay plates were first treated with biologically active compounds by transferring 4 μL from the 10× inhibitor plate. Cells were then treated with each lethal compound in a 2-fold dilution series by transferring 4 μL solution from each 10× lethal plate. […] Percent growth inhibition (% GI) was calculated by the following formula using fluorescence intensity values: % GI=100*(1−(X−N)/([…])) wherein X is the fluorescent intensity value measured at 590 nm for cells treated with biologically active compound and lethal compound; N is the fluorescent intensity value measured at 590 nm for a control containing no cells (i.e. biologically active compound in growth media); and P is the fluorescent intensity value measured at 590 nm for a control containing no lethal compound (i.e., cells treated with biologically active compound). Counter Screening with Iron Chelators

[2] = system: A549, Calu-1, PaCa, and HCT116 cells; experiment: Alamar blue assay in KRAS-mutation-harboring cancer cells; format: cell-based, human
Experimental: A549, Calu-1, HCT116 and MIA PaCa-2 cell lines have an oncogenic mutation in the KRAS gene. Compounds which tested positive in the oncogenic HRAS primary screen were also tested for their selectivity against oncogenic KRAS which is more commonly mutated in human cancers.

[3] = system: CCRF-CEM; experiment: NCI60 anti-cancer screening
[4] = system: SR; experiment: NCI60 anti-cancer screening
[5] = system: HT29; experiment: NCI60 anti-cancer screening
[6] = system: SNB-75; experiment: NCI60 anti-cancer screening
[7] = system: 786-0; experiment: NCI60 anti-cancer screening
[8] = system: UO-31; experiment: NCI60 anti-cancer screening
[9] = system: HS 578T; experiment: NCI60 anti-cancer screening
[10] = system: BT-549; experiment: NCI60 anti-cancer screening

For COCCOC(=O)C1=C(C)NC2=C(C(=O)CC(c3ccc(Cl)cc3)C2)C1c1ccccc1F (stereo not drawn) [Compound 3], the “biologically active compounds that suppress compound-induced cell death” value ([1]; 36 bioactive compounds of Table 1, 24 hours, alamar blue) was “anti-oxidants (GSH, BHT, Vit. E), iron chelators (L-mim, DFOM), and a protein synthesis inhibitor (cycloheximide)”, the “effect of MEK1/2 inhibitor (U0126) on compound-induced cell death” value ([1]; U0126 10 uM) was “completely blocked” and the “activity in KRAS-mutation-harboring cancer cells (in words)” value [2] was “less activity”. The GI50 ([3]; Homo sapiens) was 7.95 µM, the CC50 ([3]; Homo sapiens, read-out: LC 50%) was over 10 µM and the “GI 100%” value ([3]; Leukemia) was over 10 µM. The GI50 ([4]; Homo sapiens) was 7.15 µM, the CC50 ([4]; Homo sapiens, read-out: LC 50%) was over 10 µM and the “GI 100%” value ([4]; Leukemia) was over 10 µM. For the same molecule, the “GI 100%” value ([5]; HT29, Colon Cancer) was over 10 µM, the GI50 ([5]; Homo sapiens, HT-29) was 9.82 µM and the CC50 ([5]; Homo sapiens, HT-29, read-out: LC 50%) was over 10 µM. For the same molecule, the GI50 ([6]; Homo sapiens, SNB-75) was 9.61 µM, the CC50 ([6]; Homo sapiens, SNB-75, read-out: LC 50%) was over 10 µM and the “GI 100%” value ([6]; SNB-75, CNS Cancer) was over 10 µM. The “GI 100%” value ([7]; 786-0, Renal Cancer) was over 10 µM, the GI50 ([7]; Homo sapiens, 786-0) was 9.27 µM and the CC50 ([7]; Homo sapiens, 786-0, read-out: LC 50%) was over 10 µM. For the same molecule, the GI50 ([8]; Homo sapiens, UO-31) was 6.82 µM, the CC50 ([8]; Homo sapiens, UO-31, read-out: LC 50%) was over 10 µM and the “GI 100%” value ([8]; UO-31, Renal Cancer) was over 10 µM. For the same molecule, the “GI 100%” value ([9]; HS 578T, Breast Cancer) was over 10 µM, the GI50 ([9]; Homo sapiens, Hs-578T) was 9.31 µM and the CC50 ([9]; Homo sapiens, Hs-578T, read-out: LC 50%) was over 10 µM. The “GI 100%” value ([10]; BT-549, Breast Cancer) was over 10 µM, the GI50 ([10]; Homo sapiens, BT-549) was 4.28 µM and the CC50 ([10]; Homo sapiens, BT-549, read-out: LC 50%) was over 10 µM.
